From patent US11554124B2, “Hematopoiesis-enhancing agent” (priority 2018, dated 2023)

Test system: bone marrow erythroblasts
Assay: Flow cytometry of bone marrow cells / erythroblast subsets (Ter119/CD71 double staining) of treated mice
Format: in vivo, mouse
Method: Wild-type mice with a genetic background of C57BL/6J were purchased from Charles River Laboratories, Inc. Mice at 8 to 14 weeks of age were used for analysis. For CLEU treatment (50 mg/body), a solution of cycloleucine (CLEU) was prepared by diluting cycloleucine (CLEU) (Sigma) in PBS (50 mg/ml), and 1 ml of the CLEU solution was administered intraperitoneally. For AKBA treatment (2 mg/body), 2 mg AKBA (Enzo Life Sciences)/20% DMSO/1 mL PBS solution was administered intraperitoneally. Vehicle without AKBA was used as a control. For measuring complete blood count of peripheral blood, peripheral blood was collected from facial veins and counted by use of an automated animal blood cell counter (microsemi LC-662). All of the experiments conducted in this study were approved by the Animal Experiment Committee of the Environmental Safety Committee of Tohoku University.
BM cells and spleen cells were harvested in a conventional manner. Cells were stained with combinations of antibodies specific to erythroblasts and mature cells, to thereby identify them. The cells were visualized with antibody and streptavidin-peridinin chlorophyll protein-cyanin 5.5. The antibodies used in this study were as follows: anti-CD3e (145-2C11), anti-CD4 (GK1.5 or RM4.5), anti-CD8a (53-6.7), anti-Gr-1 (RB6-8C5), anti-B220 (RA3-6B2), anti-Ter-119 (TER-119), anti-CD71 (R17217 or C2). Cells were stained with […] (Sigma), and dead cells were excluded from analysis. Flow cytometric analysis and cell sorting were performed according to the manufacturer's protocol using FACS AriaII (BD), and then the obtained data were analyzed using FlowJo software (TreeStar).
Additionally, MAT inhibitor PF9366 (PF) was administered to mice and the effect thereof was investigated. Vehicle (DMSO) (control (Ctrl)) or 10 mM PF9366 (prepared at a concentration of 40 μl/40 ml water) was provided in a drinking bottle (0 h). In addition, 80 μl of vehicle (DMSO) or 80 μl of 10 mM PF9366 dissolved in 1 ml PBS was also administered intraperitoneally at 0 h and 24 h. Analysis was carried out at Day 2 (48 h).
MAT inhibitor 3-acetyl-11-keto-β-boswellic acid (AKBA; 2 mg/body) was intraperitoneally administered to mice at 0 and 24 hours, and analyzed after 48 hours.

[1] = PF9366 in drinking water plus i.p. at 0 h and 24 h, Day 2 (48 h), vs DMSO

Compound: CN(C)CCc1nnc2cc(-c3ccccc3)c3cc(Cl)ccc3n12 [PF9366, 2-(7-chloro-5-phenyl-[1,2,4]triazolo[4,3-a]quinolin-1-yl)-N,N-dimethylethan-1-amine]
- subset from which the increase of erythroblast was initiated (PF9366 10 mM: 40 μl/40 ml drinking water plus 80 μl in 1 ml PBS i.p. at 0 h and 24 h, Day 2 (48 h), vs DMSO): initiated from subset III
- erythroblast maturation index [1]: significant difference
- maturation of erythroblasts [1]: significantly up-regulated

Compound: CC(=O)O[C@@H]1CC[C@@]2(C)[C@@H](CC[C@]3(C)[C@@H]2C(=O)C=C2[C@@H]4[C@@H](C)[C@H](C)CC[C@]4(C)CC[C@]23C)[C@@]1(C)C(=O)O [AKBA, 3-acetyl-11-keto-β-boswellic acid]
- maturation of erythroblasts (AKBA 2 mg/body i.p. at 0 and 24 hours, analyzed after 48 hours, Ter119/CD71 double staining, vs vehicle): significantly up-regulated
